Test results: patent publication US11053409B2, “Compositions for containers and other articles and methods of using same” (priority 2011, dated 2021)

Tests used:
[1] = tested on: MCF-7, clone WS8, cells; assay: MCF-7 cell proliferation assay of estrogenic activity; assay type: cell-based, human; details: logarithmic (base 10) Relative Proliferative Effect relative to 17-beta estradiol; values stated as expected or measured
Source text: The MCF-7 assay uses MCF-7, clone WS8, cells to measure whether and to what extent a substance induces cell proliferation via estrogen receptor (ER)-mediated pathways. The method is described in “Test Method Nomination: MCF-7 Cell Proliferation Assay of Estrogenic Activity” submitted for validation by CertiChem, Inc. to the National Toxicology Program Interagency Center for the Evaluation of Alternative Toxicological Methods (NICEATM) on Jan. 19, 2006 (available online at http://iccvam.niehs.nih.gov/methods/endocrine/endodocs/SubmDoc.pdf).
A brief summary of the method of the aforementioned MCF-7 assay is provided below. MCF-7, clone WS8, cells are maintained at 37° C. in RMPI (or Roswell Park Memorial Institute medium) containing Phenol Red (e.g., GIBCO Catalog Number 11875119) and supplemented with the indicated additives for routine culture. An aliquot of cells maintained at 37° C. are grown for 2 days in phenol-free media containing 5% charcoal stripped fetal bovine serum in a 25 cm^2 tissue culture flask. Using a robotic dispenser such as an epMotion 5070 unit, MCF-7 cells are then seeded at 400 cells per well in 0.2 ml of hormone-free culture medium in Corning 96-well plates. The cells are adapted for 3 days in the hormone-free culture medium prior to adding the chemical to be assayed for estrogenic activity. The media containing the test chemical is replaced daily for 6 days. At the end of the 7-day exposure to the test chemical, the media is removed, the wells are washed once with 0.2 ml of HBSS (Hanks' Balanced Salt Solution), and then assayed to quantify amounts of DNA per well using a micro-plate modification of the Burton diphenylamine (DPA) assay, which is used to calculate the level of cell proliferation.
RPE is the ratio between the EC50 of the test chemical and the EC50 of the control substance 17-beta estradiol times 100, where EC50 is “effective concentration 50%” or half-maximum stimulation concentration for cell proliferation measured as total DNA in the MCF-7 assay.

[2] = suitable genotoxicity assays (e.g., Ames II assay); assay type: cell-based
Procedure: The mixture was stirred for 30 minutes at −10° C. Epichlorohydrin (1.9 liters, 24.2 moles) was added via dropping funnel at −10 to −5° C. The solution was allowed to warm up to room temperature and then was heated for 16 hours at a temperature of from 75 to 82° C. After cooling down to ambient temperature, the mixture was added to cold tap water (12 liters). Ethyl acetate (5 liters) was added to the mixture, which was stirred for 10 minutes and separated. The aqueous layer was extracted again with additional ethyl acetate (3 liters). The combined ethyl acetate extracts were washed twice with brine (2×6 liters), dried over anhydrous sodium sulfate (600 grams), and filtered. The solvent was removed under reduced pressure to give 887 grams of crude product as a purple oil. The crude product was dissolved in toluene (600 milliliters) and passed over a silica gel pad (1.4 kilograms), and eluted with a mixture of toluene and heptane (8 parts toluene to 2 parts heptane). The fractions containing product were combined and evaporated under reduced pressure. The product was mostly the desired diepoxide (756 grams, yellow oil which crystallizes in time), with some monoepoxide present. The purified material (756 grams) was dissolved at 70° C. in 2-propanol (2.3 liters) and then allowed to cool down to room temperature overnight. […]

[3] = biological target: T1, human estrogen receptor (Homo sapiens, UniProt P03372); assay: suitable in vitro assay whose results are directly correlated to the MCF-7 assay; details: in vitro assay correlated to MCF-7 assay through common reference compounds
T1 sequence (P03372 1-595): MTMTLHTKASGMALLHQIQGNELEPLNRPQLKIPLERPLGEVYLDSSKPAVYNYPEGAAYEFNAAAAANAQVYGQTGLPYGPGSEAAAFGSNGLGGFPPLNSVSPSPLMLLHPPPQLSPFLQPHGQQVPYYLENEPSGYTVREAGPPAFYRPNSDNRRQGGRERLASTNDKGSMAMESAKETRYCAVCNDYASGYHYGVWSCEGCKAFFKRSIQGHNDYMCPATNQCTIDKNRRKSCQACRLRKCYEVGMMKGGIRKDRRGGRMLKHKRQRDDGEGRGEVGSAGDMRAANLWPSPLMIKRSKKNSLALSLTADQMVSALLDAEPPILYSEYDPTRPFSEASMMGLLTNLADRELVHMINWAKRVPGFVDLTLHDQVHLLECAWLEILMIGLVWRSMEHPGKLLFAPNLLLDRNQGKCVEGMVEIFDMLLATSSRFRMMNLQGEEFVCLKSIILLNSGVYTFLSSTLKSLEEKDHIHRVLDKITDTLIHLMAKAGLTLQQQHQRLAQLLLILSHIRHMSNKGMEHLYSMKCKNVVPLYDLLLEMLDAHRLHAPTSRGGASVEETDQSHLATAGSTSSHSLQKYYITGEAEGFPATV

| SMILES | Log RPE [1] | genotoxicity [2] | estrogenic activity [3] |
| --- | --- | --- | --- |
| CC/C(=C(/CC)c1ccc(O)cc1)c1ccc(O)cc1 [diethylstilbestrol, reference compound] | about 2 |  |  |
| CC(C)(C)c1cc(Cc2cc(C(C)(C)C)c(OCC3CO3)c(C(C)(C)C)c2)cc(C(C)(C)C)c1OCC1CO1 (stereo not shown) [Diglycidyl ether of 4,4′-methylenebis(2,6-di-tert-butylphenol)] |  | non-genotoxic |  |
| CCCC(c1cc(C(C)(C)C)c(O)cc1C)c1cc(C(C)(C)C)c(O)cc1C [Structure 7] | less than −4 |  |  |
| Cc1cc(CCc2cc(C)c(O)c(C)c2)cc(C)c1O [Structure 2] | −3 |  |  |
| CC(C)(C)c1cc(Cc2cc(C(C)(C)C)c(O)c(C(C)(C)C)c2)cc(C(C)(C)C)c1O [Structure 8] | less than −4 |  | do not exhibit appreciable estrogenic activity |
| C/C=C(/C(=C/C)c1ccc(O)cc1)c1ccc(O)cc1 [dienestrol, reference compound] | about 2 |  |  |
| CC(C)(c1ccc(O)cc1)c1ccc(C(C)(C)c2ccc(O)cc2)cc1 [Structure 10] | less than −4 |  |  |
| Cc1cc(Cc2cc(C)c(O)c(C)c2)cc(C)c1O [Structure 6] | less than −4 |  | do not exhibit appreciable estrogenic activity |
| Cc1cc(C(C)(C)c2cc(C)c(O)c(C)c2)cc(C)c1O [Structure 1] | −2 |  |  |
| CCc1cc(Cc2cc(CC)cc(C(C)(C)C)c2O)c(O)c(C(C)(C)C)c1 [Structure 15] | less than −4 |  |  |
| O=c1c(-c2ccc(O)cc2)coc2cc(O)cc(O)c12 [Genistein, reference compound] | −2 |  |  |
| CC(c1ccc(O)cc1)(c1ccc(O)cc1)c1ccc(O)cc1 [Structure 3] | −3 |  |  |
| CCCC(c1cc(C(C)(C)C)c(OCC2CO2)cc1C)c1cc(C(C)(C)C)c(OCC2CO2)cc1C (stereo not shown) |  | non-genotoxic |  |
| Cc1cc(Cc2cc(C)cc(C(C)(C)C)c2O)c(O)c(C(C)(C)C)c1 [Structure 9] | less than −4 |  | do not exhibit appreciable estrogenic activity |
| CCCC(c1cc(C(C)(C)C)c(O)cc1C)c1cc(C(C)(C)C)c(O)cc1C [Structure 7, 4,4′-butylidenebis(2-t-butyl-5-methylphenol)] |  |  | do not exhibit appreciable estrogenic activity |
| CC(c1ccccc1)(c1ccc(O)cc1)c1ccc(O)cc1 [Structure 4] | −3 |  |  |
| CC(C)(C)c1cc(O)c(C(C)(C)C)cc1O [Structure 12] |  |  | do not exhibit appreciable estrogenic activity |
| C[C@]12CC[C@@H]3c4ccc(O)cc4CC[C@H]3[C@@H]1CC[C@@H]2O [17β-estradiol, reference compound] | 2.00 |  |  |
| O=S(=O)(c1ccc(O)cc1)c1ccc(O)cc1 [Bisphenol S, reference compound] | −2 |  |  |
| Oc1ccccc1Cc1ccccc1O [Structure 11] | less than −4 |  |  |
| Cc1cc(Cc2cc(C)cc(C3(C)CCCCC3)c2O)c(O)c(C2(C)CCCCC2)c1 [Structure 13] | less than −4 |  |  |
| Oc1ccc(Cc2ccc(O)cc2)cc1 [Bisphenol F, reference compound] | −2 |  |  |
